Test results as given in ChEMBL document CHEMBL4043139, “Fluoro and pentafluorothio analogs of the antitumoral curcuminoid EF24 with superior antiangiogenic and vascular-disruptive effects” (Bioorg Med Chem, 2017).

How the values were obtained:
KB-V1/Vbl = assay: (§1) Cytotoxicity against human KB-V1/Vbl cells after 72 hrs by MTT assay; format: functional, cell-based
[1] = as §1; format: functional, cell-based
PANC-1 = assay: Cytotoxicity against human PANC1 cells after 72 hrs by MTT assay; format: functional, cell-based; settings: for IC50: PANC-1, 72 h
HT-29 = assay: Cytotoxicity against human HT-29 cells after 72 hrs by MTT assay; format: functional, cell-based; settings: for IC50: HT-29, 72 h
HCT-116 = assay: Cytotoxicity against human HCT116 cells after 72 hrs by MTT assay; format: functional, cell-based; settings: for IC50: HCT-116, 72 h
MCF7/Topo = assay: (§2) Cytotoxicity against human MCF7/Topo cells after 72 hrs by MTT assay; format: functional, cell-based
[2] = as §2; format: functional, cell-based
518A2 = assay: Cytotoxicity against human 518A2 cells after 72 hrs by MTT assay; format: functional, cell-based; settings: for IC50: 518A2, 72 h
DLD-1 = assay: Cytotoxicity against human DLD1 cells after 72 hrs by MTT assay; format: functional, cell-based; settings: for IC50: DLD-1, 72 h
[3] = (§3) Cytotoxicity against human U87 cells after 72 hrs by MTT assay; format: functional, cell-based, U-87MG ATCC; settings: U-87 MG
U-87MG ATCC = assay: as §3; format: functional, cell-based

SMILES	Activity (KB-V1/Vbl)	IC50 [1] [nM]	Activity (PANC-1)	IC50 (PANC-1) [nM]	Activity (HT-29)	IC50 (HT-29) [nM]	Activity (HCT-116)	IC50 (HCT-116) [nM]	Activity (MCF7/Topo)	IC50 [2] [nM]	Activity (518A2)	IC50 (518A2) [nM]	Activity (DLD-1)	IC50 (DLD-1) [nM]	IC50 [3] [nM]	Activity (U-87MG ATCC)
CCN1C/C(=C\c2cc(F)c(F)cc2F)C(=O)/C(=C/c2cc(F)c(F)cc2F)C1	Dose-dependent effect	640	Dose-dependent effect	830	Dose-dependent effect	690	Dose-dependent effect	510	Dose-dependent effect	1100	Dose-dependent effect	1500	Dose-dependent effect	520	–	–
CN1C/C(=C\c2ccc(F)c(F)c2)C(=O)/C(=C/c2ccc(F)c(F)c2)C1	Dose-dependent effect	990	Dose-dependent effect	1500	Dose-dependent effect	1500	Dose-dependent effect	510	Dose-dependent effect	1300	Dose-dependent effect	1500	Dose-dependent effect	470	–	–
O=C1/C(=C/c2ccc(S(F)(F)(F)(F)F)cc2)CCC/C1=C\c1ccc(S(F)(F)(F)(F)F)cc1	Dose-dependent effect	1900	Dose-dependent effect	2000	Dose-dependent effect	1100	Dose-dependent effect	710	Dose-dependent effect	1800	Dose-dependent effect	1800	Dose-dependent effect	860	3200	Dose-dependent effect
CN1C/C(=C\c2ccccc2F)C(=O)/C(=C/c2ccccc2F)C1	Dose-dependent effect	1800	Dose-dependent effect	2200	Dose-dependent effect	2200	Dose-dependent effect	1300	Dose-dependent effect	2300	Dose-dependent effect	1800	Dose-dependent effect	810	–	–
CCN1C/C(=C\c2cc(F)cc(F)c2)C(=O)/C(=C/c2cc(F)cc(F)c2)C1	Dose-dependent effect	2700	Dose-dependent effect	1100	Dose-dependent effect	2100	Dose-dependent effect	550	Dose-dependent effect	1000	Dose-dependent effect	3300	Dose-dependent effect	640	–	–
CCN1C/C(=C\c2ccccc2F)C(=O)/C(=C/c2ccccc2F)C1	Dose-dependent effect	3100	Dose-dependent effect	1700	Dose-dependent effect	5200	Dose-dependent effect	1800	Dose-dependent effect	2000	Dose-dependent effect	1800	Dose-dependent effect	930	–	–
O=C1/C(=C/c2ccc(S(F)(F)(F)(F)F)cc2)CSC/C1=C\c1ccc(S(F)(F)(F)(F)F)cc1	Dose-dependent effect	570	Dose-dependent effect	840	Dose-dependent effect	980	Dose-dependent effect	640	Dose-dependent effect	760	Dose-dependent effect	850	Dose-dependent effect	750	2100	Dose-dependent effect
O=C1/C(=C/c2ccc(F)c(F)c2)CSC/C1=C\c1ccc(F)c(F)c1	Dose-dependent effect	760	Dose-dependent effect	2100	Dose-dependent effect	1300	Dose-dependent effect	2000	Dose-dependent effect	1600	Dose-dependent effect	1500	Dose-dependent effect	1800	2300	Dose-dependent effect
O=C(/C=C/c1ccc(S(F)(F)(F)(F)F)cc1)/C=C/c1ccc(S(F)(F)(F)(F)F)cc1	Dose-dependent effect	3600	Dose-dependent effect	3100	Dose-dependent effect	1800	Dose-dependent effect	1000	Dose-dependent effect	3400	Dose-dependent effect	4400	Dose-dependent effect	3200	8700	Dose-dependent effect
CCN1C/C(=C\c2c(F)cc(F)cc2F)C(=O)/C(=C/c2c(F)cc(F)cc2F)C1	Dose-dependent effect	1200	Dose-dependent effect	1300	Dose-dependent effect	2000	Dose-dependent effect	1100	Dose-dependent effect	2100	Dose-dependent effect	2000	Dose-dependent effect	1400	–	–
CCN1C/C(=C\c2ccc(F)cc2F)C(=O)/C(=C/c2ccc(F)cc2F)C1	Dose-dependent effect	1200	Dose-dependent effect	2300	Dose-dependent effect	3100	Dose-dependent effect	2000	Dose-dependent effect	1800	Dose-dependent effect	2400	Dose-dependent effect	960	–	–
